Measurements taken from patent US11149067B2, “Tailored cyclodepsipeptides as potent non-covalent serine protease inhibitors” (UNIVERSITÄT DUISBURG-ESSEN, priority 2017, dated 2021).

How the values were obtained:
[1] = molecular target: human pancreas chymotrypsin; experiment: Chromogenic enzyme activity assay, chymotrypsin; type: biochemical; conditions: for Ki: human pancreas chymotrypsin, Table 2
[2] = molecular target: bovine pancreas trypsin (Bos taurus (Bovine), UniProt P00760); experiment: Chromogenic enzyme activity assay, trypsin; type: biochemical; conditions: Table 2
Sequence of bovine pancreas trypsin (P00760 24-246): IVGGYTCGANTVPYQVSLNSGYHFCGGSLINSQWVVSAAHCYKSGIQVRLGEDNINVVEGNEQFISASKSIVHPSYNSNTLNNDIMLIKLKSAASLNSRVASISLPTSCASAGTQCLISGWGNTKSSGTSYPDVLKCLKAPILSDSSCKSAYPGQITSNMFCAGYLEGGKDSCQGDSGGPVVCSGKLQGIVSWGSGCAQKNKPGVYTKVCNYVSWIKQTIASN

[3] = molecular target: human HTRA1 (Homo sapiens (Human), UniProt Q92743); experiment: Chromogenic enzyme activity assay, HTRA1
Sequence of human HTRA1 (Q92743 158-480): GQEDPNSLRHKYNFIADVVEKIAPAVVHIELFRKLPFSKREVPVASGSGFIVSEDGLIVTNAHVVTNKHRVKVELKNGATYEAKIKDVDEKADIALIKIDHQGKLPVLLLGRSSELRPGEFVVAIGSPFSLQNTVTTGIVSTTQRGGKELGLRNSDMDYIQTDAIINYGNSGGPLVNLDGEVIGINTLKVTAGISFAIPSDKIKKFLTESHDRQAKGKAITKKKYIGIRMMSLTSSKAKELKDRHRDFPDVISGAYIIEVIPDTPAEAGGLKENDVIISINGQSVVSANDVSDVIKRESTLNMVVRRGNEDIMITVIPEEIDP

[4] = molecular target: human HTRA3 (Homo sapiens (Human), UniProt P83110); experiment: Chromogenic enzyme activity assay, HTRA3
Sequence of human HTRA3 (P83110 111-436): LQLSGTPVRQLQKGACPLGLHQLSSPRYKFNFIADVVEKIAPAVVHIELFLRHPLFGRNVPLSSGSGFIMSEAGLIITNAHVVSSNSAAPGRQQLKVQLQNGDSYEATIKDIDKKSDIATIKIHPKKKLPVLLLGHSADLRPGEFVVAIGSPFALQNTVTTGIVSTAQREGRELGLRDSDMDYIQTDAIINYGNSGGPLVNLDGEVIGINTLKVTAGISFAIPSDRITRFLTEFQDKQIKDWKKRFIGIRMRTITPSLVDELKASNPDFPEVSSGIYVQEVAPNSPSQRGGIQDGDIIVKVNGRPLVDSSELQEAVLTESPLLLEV

[5] = molecular target: human neutrophil elastase (Homo sapiens (Human), UniProt P08246); experiment: Chromogenic enzyme activity assay, elastase; type: biochemical; conditions: for Ki: human neutrophil elastase
Sequence of human neutrophil elastase (P08246 30-267): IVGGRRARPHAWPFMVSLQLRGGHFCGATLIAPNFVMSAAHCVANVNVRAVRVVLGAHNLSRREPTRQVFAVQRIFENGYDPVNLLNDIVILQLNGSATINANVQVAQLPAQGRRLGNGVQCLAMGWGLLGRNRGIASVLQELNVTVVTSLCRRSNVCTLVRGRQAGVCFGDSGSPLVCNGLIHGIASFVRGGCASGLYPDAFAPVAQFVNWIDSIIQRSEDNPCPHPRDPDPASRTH

[6] = molecular target: human HTRA2 (Homo sapiens (Human), UniProt O43464); experiment: Chromogenic enzyme activity assay, HTRA2; conditions: for fold gain in HTRA2 potency relative to Ahp1: compared with Ahp1
Sequence of human HTRA2 (O43464 134-458): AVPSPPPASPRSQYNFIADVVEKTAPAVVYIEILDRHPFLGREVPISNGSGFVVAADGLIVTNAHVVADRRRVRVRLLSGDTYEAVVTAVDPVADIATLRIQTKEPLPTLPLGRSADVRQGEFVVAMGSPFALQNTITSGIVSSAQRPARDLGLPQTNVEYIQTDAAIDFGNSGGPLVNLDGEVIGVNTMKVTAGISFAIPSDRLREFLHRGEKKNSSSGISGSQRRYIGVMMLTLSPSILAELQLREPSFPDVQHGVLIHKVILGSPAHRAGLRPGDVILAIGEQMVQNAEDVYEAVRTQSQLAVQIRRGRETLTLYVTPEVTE

[7] = test system: human bone marrow-derived stromal cells (hBMSCs); experiment: HTRA1-mediated hBMSC osteogenesis, matrix mineralization by Alizarin Red S staining; type: cell-based; conditions: 10 μM compound, with HTRA1 or inactive HTRA1 S328A
Description: Human BMSCs (hBMSCs) (Lonza Verviers, Belgium) were maintained in normal growth medium consisting of Dulbecco's modified eagle medium (DMEM-low glucose, with Glutamax) (Thermo Fisher Scientific, Reinach, Switzerland), supplemented with 10% fetal bovine serum (FBS) (Bioswisstec, Schaffhausen, Switzerland) and penicillin (50 units mL^−1) and streptomycin (50 μg mL^−1), and used between passage 2 and 6. The osteogenic differentiation of hBMSCs was performed as previously described in the art. Briefly, hBMSCs were seeded at 10′000 cells cm-2 in 24-well cell culture plates, and incubated for up to 14 days in osteogenic medium consisting of normal growth medium supplemented with ascorbic acid (50 μM), β-glycerophosphate (10 mM) and dexamethasone (100 nM) (all from Sigma-Aldrich, Buchs, Switzerland). Cells were replenished with fresh medium every 3-4 days. […] Mineralized matrix deposition by hBMSC-derived bone forming cells was visualized using Alizarin Red S, and the amount of staining quantified by determining the absorption at 570 nm using a multiplate reader (Infinite M200, Tecan) following extraction with 10% cetylpyridinium chloride (Sigma-Aldrich).

SMILES | Ki [1] | Ki [2] | HTRA1 inhibition, in words [3] | HTRA3 inhibition, in words [4] | chymotrypsin inhibition, in words [1] | elastase inhibition, in words [5] | HTRA2 inhibition, in words [6] | Ki ([5]; Table 2) | Ki [3] | Ki [6] | Ki [4] | fold gain in HTRA2 potency relative to Ahp1 [6] | Ki ([5]; Table 3) | inhibition of HTRA1-mediated hBMSC osteogenesis (matrix mineralization) [7]
CC(C)C[C@H]1C(=O)N(C)[C@@H](Cc2ccccc2)C(=O)N[C@@H](C(C)C)C(=O)O[C@H](C)[C@H](NC(=O)[C@H](C)NC(=O)[C@H](C)NC(=O)OCc2ccccc2)C(=O)N[C@@H](C(C)C)C(=O)N[C@H]2CC[C@@H](O)N1C2=O [Ahp1] | > 50 µM | > 50 µM | inhibited | inhibited | – | – | – | – | – | – | – | – | – | –
CC(C)[C@@H]1NC(=O)[C@@H](NC(=O)[C@H](C)NC(=O)[C@H](C)NC(=O)OCc2ccccc2)[C@@H](C)OC(=O)[C@H](C(C)C)NC(=O)[C@H](Cc2ccccc2)N(C)C(=O)[C@H](Cc2ccccc2)N2C(=O)[C@H](CC[C@H]2O)NC1=O [Ahp6] | > 50 µM | > 50 µM | inhibited | – | – | – | – | 8 ± 1.8 µM | 10.3 ± 3 µM | 2.1 ± 0.3 µM | > 50 µM | – | – | –
CC(C)C[C@H]1C(=O)N(C)[C@@H](C)C(=O)N[C@@H](C(C)C)C(=O)O[C@H](C)[C@H](NC(=O)[C@H](C)NC(=O)[C@H](C)NC(=O)OCc2ccccc2)C(=O)N[C@@H](C(C)C)C(=O)N[C@H]2CC[C@@H](O)N1C2=O [Ahp7] | > 50 µM | > 50 µM | – | – | – | low μM or even sub-μM | – | – | – | – | – | – | – | –
CC(C)C[C@@H]1NC(=O)[C@@H](NC(=O)[C@H](C)NC(=O)[C@H](C)NC(=O)OCc2ccccc2)[C@@H](C)OC(=O)[C@H](C(C)C)NC(=O)[C@H](Cc2ccccc2)N(C)C(=O)[C@H](CC(C)C)N2C(=O)[C@H](CC[C@H]2O)NC1=O [Ahp9] | – | – | – | – | – | – | slightly better HTRA2 inhibitory properties than Ahp1 | – | – | – | – | – | – | –
CC(C)C[C@H]1C(=O)N(C)[C@@H](Cc2ccccc2)C(=O)N[C@@H](C(C)C)C(=O)O[C@H](C(C)C)[C@H](NC(=O)[C@H](C)NC(=O)[C@H](C)NC(=O)OCc2ccccc2)C(=O)N[C@@H](C(C)C)C(=O)N[C@H]2CC[C@@H](O)N1C2=O [Ahp10] | > 50 µM | > 50 µM | lowered the Ki | – | – | lowered the Ki | sub-μM Ki | – | – | – | – | 15 fold | – | significantly inhibited
CC(C)C[C@H]1C(=O)N(C)[C@@H](Cc2ccccc2)C(=O)N[C@@H](C(C)C)C(=O)O[C@H](C(C)C)[C@H](NC(=O)[C@H](C)NC(=O)CCc2ccccc2)C(=O)N[C@@H](C(C)C)C(=O)N[C@H]2CC[C@@H](O)N1C2=O [Ahp11] | – | – | – | moderate inhibition | – | – | moderate inhibition | – | – | – | – | – | – | –
CC(C)C[C@H]1C(=O)N(C)[C@@H](Cc2ccccc2)C(=O)N[C@@H](C(C)C)C(=O)O[C@H](C)[C@H](NC(=O)[C@H](C)NC(=O)[C@H](C)NC(=O)OCc2ccccc2)C(=O)N[C@@H](C)C(=O)N[C@H]2CC[C@@H](O)N1C2=O [Ahp13] | – | – | enhanced inhibitory activity | enhanced inhibitory activity | – | – | enhanced inhibitory activity | – | – | – | – | – | – | –

Continued, in another order:

Ki [1] | Ki [2] | HTRA1 inhibition, in words [3] | HTRA3 inhibition, in words [4] | chymotrypsin inhibition, in words [1] | elastase inhibition, in words [5] | HTRA2 inhibition, in words [6] | Ki ([5]; Table 2) | Ki [3] | Ki [6] | Ki [4] | fold gain in HTRA2 potency relative to Ahp1 [6] | Ki ([5]; Table 3) | SMILES | inhibition of HTRA1-mediated hBMSC osteogenesis (matrix mineralization) [7]
0.37 ± 0.08 µM | – | significantly reduced | significantly reduced | enhanced chymotrypsin inhibition | significantly reduced | significantly reduced | – | – | – | – | – | – | CC(C)C[C@H]1C(=O)N(C)[C@@H](Cc2ccccc2)C(=O)N[C@@H](C(C)C)C(=O)O[C@H](C)[C@H](NC(=O)[C@H](C)NC(=O)[C@H](C)NC(=O)OCc2ccccc2)C(=O)N[C@@H](Cc2ccccc2)C(=O)N[C@H]2CC[C@@H](O)N1C2=O [Ahp2] | –
> 50 µM | > 50 µM | – | inhibited | – | – | – | 0.21 ± 0.06 µM | > 50 µM | 0.27 ± 0.07 µM | 3.1 ± 0.6 µM | – | – | CC(C)C[C@H]1C(=O)N(C)[C@@H](Cc2ccccc2)C(=O)N[C@@H](C(C)C)C(=O)O[C@H](c2ccccc2)[C@H](NC(=O)[C@H](C)NC(=O)[C@H](C)NC(=O)OCc2ccccc2)C(=O)N[C@@H](C(C)C)C(=O)N[C@H]2CC[C@@H](O)N1C2=O [Ahp3] | –
> 50 µM | > 50 µM | – | – | – | – | sub-μM inhibition potencies | 0.33 ± 0.06 µM | > 50 µM | 0.49 ± 0.11 µM | > 50 µM | more than ten-fold | – | CC(C)C[C@H]1C(=O)N(C)[C@@H](Cc2ccccc2)C(=O)N[C@@H](C(C)C)C(=O)O[C@H](C)[C@H](NC(=O)[C@H](Cc2ccccc2)NC(=O)[C@H](C)NC(=O)OCc2ccccc2)C(=O)N[C@@H](C(C)C)C(=O)N[C@H]2CC[C@@H](O)N1C2=O [Ahp4] | –
> 50 µM | > 50 µM | – | inhibited | – | – | – | 0.32 ± 0.05 µM | > 50 µM | 2.3 ± 0.2 µM | 9.5 ± 0.9 µM | – | – | CC(C)C[C@H]1C(=O)N(C)[C@@H](Cc2ccccc2)C(=O)N[C@@H](Cc2ccccc2)C(=O)O[C@H](C)[C@H](NC(=O)[C@H](C)NC(=O)[C@H](C)NC(=O)OCc2ccccc2)C(=O)N[C@@H](C(C)C)C(=O)N[C@H]2CC[C@@H](O)N1C2=O [Ahp8] | –
– | – | enhanced inhibitory activity | enhanced inhibitory activity | – | – | enhanced inhibitory activity | – | – | – | – | – | – | CC[C@@H]1NC(=O)[C@@H](NC(=O)[C@H](C)NC(=O)[C@H](C)NC(=O)OCc2ccccc2)[C@@H](C)OC(=O)[C@H](C(C)C)NC(=O)[C@H](Cc2ccccc2)N(C)C(=O)[C@H](CC(C)C)N2C(=O)[C@H](CC[C@H]2O)NC1=O [Ahp14] | –
– | – | enhanced inhibitory activity | enhanced inhibitory activity | – | – | enhanced inhibitory activity | – | 1.24 µM | 1.11 µM | 0.74 µM | – | 1.93 µM | CC(C)C[C@H]1C(=O)N(C)[C@@H](Cc2ccccc2)C(=O)N[C@@H](C(C)C)C(=O)O[C@H](C)[C@H](NC(=O)[C@H](C)NC(=O)[C@H](C)NC(=O)OCc2ccccc2)C(=O)N[C@@H](C2CC2)C(=O)N[C@H]2CC[C@@H](O)N1C2=O [Ahp19] | –
– | – | – | – | – | – | – | – | > 50 µM | > 50 µM | 8.3 µM | – | 4.32 µM | CC(C)C[C@H]1C(=O)N(C)[C@@H](Cc2ccccc2)C(=O)N[C@@H](C(C)C)C(=O)O[C@H](C)[C@H](NC(=O)[C@H](C)NC(=O)[C@H](C)NC(=O)OCc2ccccc2)C(=O)N[C@@H](C(C)(C)C)C(=O)N[C@H]2CC[C@@H](O)N1C2=O [Ahp20] | –
